Measured values: US20230123585A1, “COMPOSITIONS AND METHODS FOR TREATING OR PREVENTING CANCER USING DEUBIQUITINASE INHIBITORS” (The University of Chicago, priority 2020, published 2023)

Tests used:
[1] = system: A375 and HCT-116 stable transfectants; experiment: Cell viability by SRB assay of A375 and HCT-116 stable transfectants treated with USP5 inhibitors; type: cell-based; settings: A375 1 μM, HCT-116 2 μM EOAI, 48 hr
Method: FIGS. 6A-6H: Phosphorylation of the m^6A Methyltransferase Complex May Affect Tumorigenesis. (A) Lysates of A375 stable transfectants harvested at different time points after treatment with cycloheximide (CHX) 10 μg/ml were analyzed by immunoblot. (B) LC-MS/MS quantification of the m^6A/A ratio in mRNA of A375 stable transfectants. (C) After 8 h treatment with 10 μM PD0325901 or 0.1 μM tramentib, cell lysates from A375 cells were analyzed by immunoblot. (D) LC-MS/MS quantification of the m^6A/A ratio in mRNA of A375 cells treated with 10 μM PD0325901 or 0.1 μM tramentib for 48 h. (E) After 8hr treatment with 10 μM EOAI3402143 (EOAI) or 30 μM vialinin A , cell lysates from A375 cells were analyzed by immunoblot. […] (H) LC-MS/MS quantification of the m^6A/A ratio in mRNA of SKBR3 and BT474 cells treated with 1 μM tucatinib and 1 μM lapatinib for 48 h. […]
FIGS. 14A-14I: Phosphorylation of the m^6A Methyltransferase Complex May Affect Tumorigenesis. […] (B) LC-MS/MS quantification of the m^6A/A ratio in mRNA of melanoma cell lines. (C) After 8 h treatment with 10 μM PD0325901 or 0.1 μM tramentib, cell lysates from HCT-116 cells were analyzed by immunoblot. […] The ubiquitination of METTL3 was detected by IP with anti-METTL3 and immunoblot with anti-HA. (F) After 8 hr treatment with 10 μM EOAI3402143 (EOAI) or 30 μM vialinin A, cell lysates from HCT-116 cells were analyzed by immunoblot. […]

[2] = system: METTL3 / m^6A methyltransferase complex in A375 cells; experiment: Immunoblot of METTL3 / m^6A methyltransferase complex protein in A375 cell lysates; type: cell-based, human; settings: A375 cells (also HCT-116, FIG. 14F), 8 hr, 10 μM EOAI3402143 or 30 μM vialinin A
Method: FIGS. 6A-6H: Phosphorylation of the m^6A Methyltransferase Complex May Affect Tumorigenesis. (A) Lysates of A375 stable transfectants harvested at different time points after treatment with cycloheximide (CHX) 10 μg/ml were analyzed by immunoblot. (B) LC-MS/MS quantification of the m^6A/A ratio in mRNA of A375 stable transfectants. (C) After 8 h treatment with 10 μM PD0325901 or 0.1 μM tramentib, cell lysates from A375 cells were analyzed by immunoblot. (D) LC-MS/MS quantification of the m^6A/A ratio in mRNA of A375 cells treated with 10 μM PD0325901 or 0.1 μM tramentib for 48 h. (E) After 8hr treatment with 10 μM EOAI3402143 (EOAI) or 30 μM vialinin A , cell lysates from A375 cells were analyzed by immunoblot. (F) A375 stable transfectants as indicated were treated with 3 μM EOAI3402143 (EOAI) or 10 μM vialinin A before measuring cell viability by SRB assay. Data are presented as relative to the R-WT cells without drug treatment (n=3 per group, data represent mean±SEM). (G) Immunofluorescence analysis of METTL3 (green) in SKBR3 cells treated with 1 μM tucatinib and 1 μM lapatinib for 8 hr. DAPI (blue) was used to mark the nucleus. (H) LC-MS/MS quantification of the m^6A/A ratio in mRNA of SKBR3 and BT474 cells treated with 1 μM tucatinib and 1 μM lapatinib for 48 h. (See also FIG. 14.)
(§1) FIGS. 11A-11G: USP5 is Required for ERK-Mediated METTL3 Stabilization. (A) A375 cells transfected with HA-ubiquitin (ub) were treated with 10 μM MG-132 and MEK inhibitor PD0325901 for 8 h. The ubiquitination of METTL3 was detected by IP with anti-METTL3 and immunoblot with anti-HA. (B) After 8 h treatment with 10 μM PD0325901 with or without 10 μM MG-132, cell lysates from A375 cells were analyzed by immunoblot. (C) A375 cells were treated with various concentrations of PD0325901 for 1 h. Cell lysates were subjected to IP with METTL3 antibody followed by immunoblot. (D) 293T cells transfected as indicated were subjected to IP/immunoblot analysis. (E) Immunofluorescence analysis of myc-METTL3 (green) in mESC stable transfectants. DAPI (blue) was used to mark the nucleus. (F) Lysates of 293T cells transfected as indicated were subjected to IP with anti-Flag antibody followed by immunoblot. (G) Immunofluorescence analysis of 293T cells co-transfected with myc-METTL3 (green), Flag-USP5 (red) with or without constitutively active B-RAF.
Immunoprecipitation, immunoblotting, and in vitro kinase assay. Immunoprecipitation (IP) and immunoblotting (IB) were performed as previously described (Sun et al., 2016). In brief, protein samples were isolated from respective cells by lysis in RIPA buffer (1% Triton X-100, 150 mM NaCl, 20 mM Na2PO4, pH 7.4) containing Halt Protease and Phosphatase Inhibitor Cocktail (Thermo Scientific). Subsequently, a BCA assay (Thermo Scientific) was used to determine the protein concentrations. For IP, indicated antibody and protein A/G magnetic beads (Thermo Scientific) were incubated with lysate at 4° C. overnight followed by washing and elution with sample buffer. Equal amounts of protein were separated by SDS-PAGE followed by wet transfer to PVDF membranes. Blots were blocked with 5% non-fat milk or BSA and incubated with respective primary antibody at 4° C. overnight. Primary antibodies were detected by HRP-linked secondary antibodies (Cell Signaling) together with SuperSignal West Pico Plus chemiluminescent substrate (Thermo Scientific) and imaged in a FluorChem R system (ProteinSimple).

ubiquitination of METTL3 = experiment: Ubiquitination of METTL3 in A375 cells transfected with HA-ubiquitin (IP anti-METTL3, immunoblot anti-HA); type: cell-based, human; settings: 10 μM MG-132 and 10 μM EOAI3402143 or 30 μM vialinin A for 8 h
Method: as §1
FIGS. 14A-14I: Phosphorylation of the m^6A Methyltransferase Complex May Affect Tumorigenesis. […] (B) LC-MS/MS quantification of the m^6A/A ratio in mRNA of melanoma cell lines. (C) After 8 h treatment with 10 μM PD0325901 or 0.1 μM tramentib, cell lysates from HCT-116 cells were analyzed by immunoblot. […] The ubiquitination of METTL3 was detected by IP with anti-METTL3 and immunoblot with anti-HA. (F) After 8 hr treatment with 10 μM EOAI3402143 (EOAI) or 30 μM vialinin A, cell lysates from HCT-116 cells were analyzed by immunoblot. […] (I) LC-MS/MS quantification of the m^6A/A ratio in mRNA of breast cancer cell lines.
Immunoprecipitation, immunoblotting, and in vitro kinase assay. […] Primary antibodies were detected by HRP-linked secondary antibodies (Cell Signaling) together with SuperSignal West Pico Plus chemiluminescent substrate (Thermo Scientific) and imaged in a FluorChem R system (ProteinSimple).

A375 and HCT116 cells = experiment: Cell viability by SRB assay of A375 and HCT116 cells treated with Ezh2 inhibitors without or with EOAI; type: cell-based; settings: 48 hr; A375: GSK343 10 μM, UNC1999 5 μM, 0.5 μM EOAI; HCT116: GSK343 10 μM, UNC1999 10 μM, 1 μM EOAI
Method: FIGS. 20A-20B: (A) A375 cells were treated with GSK343 10 μM, UNC1999 5μM without or with 0.5 μM EOAI3402143 (EOAI) for 48 hr before measuring cell viability by SRB assay. Data are presented as relative to the R-WT cells without drug treatment (n=3 per group, data represent mean±SEM). (B) HCT116 cells were treated with GSK343 10 μM, UNC1999 10 μM without or with 1 μM EOAI3402143 (EOAI) for 48 hr before measuring cell viability by SRB assay. Data are presented as relative to the R-WT cells without drug treatment (n=3 per group, data represent mean±SEM).
Cell Proliferation Assay. Cells were seeded in 96-well plates. The cell proliferation was assessed by SRB assay (Vichai and Kirtikara, 2006) at various time points. Briefly, cells after treatments were fixed with 10% TCA then stained with 0.05% SRB. After wash, bound SRB was solubilized with 10 mM Trizma base and measured at 515 nm.

Structure (SMILES)	effect of knockdown of METTL3 on sensitivity of cells to the USP5 inhibitor [1]	effect of overexpression of METTL3 on sensitivity of cells to the USP5 inhibitor [1]	METTL3 protein level [2]	ubiquitination of METTL3 (ubiquitination of METTL3)	combination effect on cell viability with the USP5 inhibitor EOAI (A375 and HCT116 cells)
CCCC(NC(=O)/C(C#N)=C/c1nc(Cl)ccc1Cl)c1ccc(OCCN2CCOCC2)cc1 (stereo not drawn) [EOAI3402143]	sensitized	attenuated	decreased	increased	
CCCc1cc(C)[nH]c(=O)c1CNC(=O)c1cc(-c2ccnc(N3CCN(C)CC3)c2)cc2c1cnn2C(C)C [GSK343]					synergism
CCCc1cc(C)[nH]c(=O)c1CNC(=O)c1cc(-c2ccc(N3CCN(C(C)C)CC3)nc2)cc2c1cnn2C(C)C [UNC199]					synergism
